Experimental data published in US20100123097A1, “Method for Making Carbonates and Esters” (SABIC […] IP BV, priority 2008, published 2010).

Details: after >20 h storage time in the solvents of the table
Method: Suitable reaction temperatures will typically be high enough to keep the solution or melt in the liquid form and not high enough to cause loss of the species 1, 2, 3, or 5 in FIGS. 1 and 2. The reaction temperature is less than 180° C., 160° C., 140° C. […] Higher reaction temperatures may be appropriate when more sterically hindered alcohols are used as reactants if longer reaction times are not acceptable.

## COC(=O)c1ccccc1OC(=O)Oc1ccccc1C(=O)OC [BMSC, bismethyl salicyl carbonate]
  Stability in these solvents (MS formation): no detectable MS formation
